The nature of data set [1]: Methylselenol (CH3SeH) release by hydrolysis, quantified with DTNB (Ellman's reagent). The class given is physicochemical. The note with it: 100 μM compound, 100 μM DTNB. The text has this:
The new compounds were designed as CH3SeH precursors. The chemical features of the selenoester functional group facilitate a nucleophilic attack (i.e., with water) which would deliver the CH3SeH residue. In order to verify if CH3SeH could be released from the molecules by hydrolysis and if the rate differed among the compounds, the reaction of CH3SeH with 5,5′-dithiobis(2-nitrobenzoic acid) (DTNB or Ellman’s reagent) in aqueous environment was monitored. Briefly, when the disulfide bridge of DTNB reacts with thiols or selenols, 2-nitro-5-thiobenzoate (TNB^2−) is released and the mixed disulfide or selenylsulfide is formed. Each released CH3SeH produces one yellow TNB^2− species, whose absorbance can be quantified at 412 nm (Figure 2A).
A stock solution of the compounds was prepared in anhydrous DMSO (10 mM). The compounds were placed in a 96-well plate in a final concentration of 100 μM. Reaction started after adding 200 μL of an aqueous 100 mM Na2HPO4 buffer (1 mM EDTA, pH = 8), containing 100 μM of DTNB from a freshly prepared 10 mM ethanolic stock, which were added just before starting the reaction. The DTNB concentration was quantified with a cysteine standard curve ([…]). Blanks for the compounds in the absence of DTNB were also included as well as a blank to measure the slow but spontaneous hydrolysis of DTNB, which was further subtracted from all the values. Absorbance was read at 412 nm in a FLUOstar Omega microplate reader (BMG LabTech, Ortenberg, Germany). Results represent means of triplicate values ± SD.
Figure 2 CH3SeH release rates are dependent on the chemical features of the molecule. Released CH3SeH was quantified through reaction with Ellman’s reagent (DTNB). (A) Proposed reaction between CH3SeH and DTNB; (B) Quantification of TNB^2− at different times. The compounds were tested at 100 μM in 200 μL of 100 mM phosphate buffer (1 mM EDTA, pH = 8). DTNB concentration was also 100 μM. Absorbance was followed at 412 nm over 72 h. A cysteine standard curve (7.5–150 μM) was used to calculate the concentration of TNB^2− over time. Compounds showing less than 15% hydrolysis at 72 h are not included, except for compound 5 as example. Error bars indicate SD of triplicates.
For orientation: Ellman's reagent forms a yellow product with free thiols.

Data set [2] has as its system MCF7 (mammary adenocarcinoma). Kind of data set: MTT viability assay, MCF7. The class given is cell-based. The note with it: MCF7, 72 h, MTT; for CC50: read-out: LC50 (the source's name). The method, boiled down:
(§1)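 Cells (10,000/well; RPMI or, for BEAS-2B, DMEM with 10% FBS; 37 °C, 5% CO2) were treated 72 h with six concentrations from 0.1 to 100 μM, diluted from 0.01 M DMSO stock. MTT was added for 4 h, formazan dissolved in DMSO, absorbance read at 550 nm; GI50, TGI and LC50 derived.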

The test system of data set [3] is HTB-54 (lung carcinoma). Kind of data set: MTT viability assay, HTB-54. Particulars: HTB-54, 72 h, MTT; for CC50: read-out: LC50 (the source's name). The class given is cell-based. Summed up:
as §1
(Tetrazolium assays rely on reduction of a dye to a coloured formazan, in cell work by metabolically active cells.)

The test system of data set [4] is MCF7 cells. Kind of data set: Cell death analysis (TUNEL, Apo-Direct kit, flow cytometry). The class given is cell-based. The note with it: for dead cells: MCF7, 30 μM, TUNEL; for cell death time dependence: MCF7, time-course, 15 μM compound 5 or 30 μM compound 15, TUNEL. How it is done:
Induction of cell death is the major aim of antitumor drugs. We analyzed cell death progression using the TUNEL technique (in the Apo-Direct kit), which is based on DNA fragmentation. MCF7 cells were treated with increasing concentrations of compounds 5 and 15 for 24 h or with 30 μM of compound 15 or 15 μM of compound 5 for different times. The negative control was treated with vehicle, and camptothecin (6 μM) was included as a positive control.
3 × 10^6 or 2 × 10^6 MCF7 cells were seeded in 25 cm^2 flasks for treatments up to 24 h or 48 h, respectively. DMSO (vehicle) or the dissolved compounds were added 24 h after seeding and cells were incubated for different times at 37 °C under 5% CO2. Cell cycle and cell death were analyzed simultaneously with the Apo-Direct kit (BD Pharmingen, Madrid, Spain), following the manufacturer’s protocol. Briefly, cells were fixed in 1% paraformaldehyde for 45 min at 0 °C, washed with PBS and incubated for at least 30 min in 70% ethanol on ice. Cells were then stained both with FITC-dUTP (1 h, 37 °C) and propidium iodide (30 min, room temperature) and analyzed by flow cytometry using a Coulter Epics XL cytometer (Beckman Coulter, Brea, CA, USA).
Figure 5 Cell death induction is dose and time-dependent for compound 15 in MCF7. MCF7 cells were treated with vehicle (control) or increasing doses of compound 5 or 15 for 24 h. For the time-course experiment, MCF7 cells were treated with vehicle (control), compound 5 (15 μM) or compound 15 (30 μM) for different times. Camptothecin (6 μM) was included as positive control. Cells were stained with the Apo-Direct kit (TUNEL assay) and analyzed by flow cytometry. (A) Dose-dependent cell death at 24 h; (B) Time-course analysis of cell death.
On the technique in general: A flow cytometer gives signals particle by particle.

Usually GI50 stands for the concentration giving 50% growth inhibition. By TGI is commonly meant the concentration at which net growth stops.

“And” between values parts separate entries of the source, which are not always exact repeats. Equal entries are not always repeated.

For the substance “Dimethyl 2,5-furandicarboselenoate [Compound 15]”, the “CH3SeH release / hydrolysis rate” value in data set [1] (100 mM phosphate buffer, 1 mM EDTA, pH 8, followed over 72 h) is given as “more sustained release”. For the same substance, the concentration for 50% growth inhibition (GI50) is 1.8 ± 0.9 µM in data set [2]; > 10 µM and 15.6 µM in data set [3]. Also, the results for the concentration for total growth inhibition (TGI) in data set [2] and in data set [3] were 7.2 ± 1.9 µM and 46.0 ± 3.0 µM, respectively. Further, the figures for the CC50 in data set [2] and in data set [3] were 57 ± 4 µM and 76.3 ± 1.1 µM, respectively. For the same substance, the dead cells in data set [4] (4 h) was 20%; in data set [4] (48 h), 80%. Also, the “cell death time dependence” value in data set [4] is “caused cell death in a time-dependent manner”.
As for “Methyl 3-chlorothiophen-2-carboselenoate [Compound 5]”, the “hydrolysis at 72 h” value in data set [1] (phosphate buffer pH 8, 72 h) is recorded as “less than 15%”. Also, in data set [2], halving of growth (GI50) required 3.1 ± 0.9 µM, the TGI turned out to be 6.9 ± 1.1 µM and the CC50 was 35.9 ± 4.4 µM. For the same substance, in data set [3], the 50% growth inhibitory concentration (GI50) was 4.9 ± 0.2 µM and the CC50 is 61.5 ± 3.2 µM. Moreover, in data set [4], the “cell death time dependence” value was “highest values of cell death for compound 5 were observed after 4 h treatment”.

(Values after article PMC6152192, “Novel Methylselenoesters as Antiproliferative Agents” (Molecules : A Journal of Synthetic Chemistry and Natural …, 2017).)
